Results published in US20260265189A1, “NOVEL COMPOUND, AND PHARMACEUTICAL COMPOSITION COMPRISING SAME AS ACTIVE INGREDIENT” (SAPIENSBIO INC., priority 2022, published 2026).

Each compound was assayed on α-SMA expression in MRC5 cells (assay: inhibition of α-SMA expression in MRC5 cells, image screening method). Settings: Homo sapiens; MRC5, compound 10 μM, TGF-β1 5 ng/mL, 72 hours, relative to TGF-β1 alone; read-out: Inhibitory activity (α-SMA expression inhibition).
Type: cell-based
Experimental: The ability of the compounds according to the present invention to inhibit the expression of α-SMA, which is a biomarker for pulmonary fibrosis, was evaluated by an image screening method. MRC5 cells were treated with the compound (10 μM) or DMSO under the condition of TGF-31 (5 ng/mL). 72 hours later, the cells were fixed with a 4% formaldehyde solution, treated with a 0.1% Triton-x100 solution, and treated with a 1% BSA solution to mask non-specific binding caused by antibodies. Anti-α-SMA-FITC (Sigma Aldrich) and anti-GAPDH (Cell Signaling Technology) were used as primary antibodies, and anti-mouse-TRITC was used as a secondary antibody. Imaging and analysis of the results were performed using Cytation5_Gen5_Version 3.12.08 (Bio Tek). Relative to the α-SMA expression level when TGF-31 was treated alone, the α-SMA expression level when both the compound and TGF-31 were treated was calculated as the ability of α-SMA expression inhibition of the corresponding compound.

| SMILES | inhibition at 10 µM |
| --- | --- |
| O=C(N[C@@H]1CCNC1)N1CCN(c2ccc(F)cc2)c2cc(F)ccc21 [Compound 1, (R)-6-fluoro-4-(4-fluorophenyl)-N-(pyrrolidin-3-yl)-3,4-dihydroquinoxaline-1(2H)-carboxamide] | ≥ 70% |
| CN1CC[C@@H](NC(=O)N2CCN(c3ccc(F)cc3)c3cc(F)ccc32)C1 [Compound 2, (R)-6-fluoro-4-(4-fluorophenyl)-N-(1-methylpyrrolidin-3-yl)-3,4-dihydroquinoxaline-1(2H)-carboxamide] | ≥ 70% |
| CC(C)N1CC[C@@H](NC(=O)N2CCN(c3ccc(F)cc3)c3cc(F)ccc32)C1 [Compound 3, (R)-6-fluoro-4-(4-fluorophenyl)-N-(1-isopropylpyrrolidin-3-yl)-3,4-dihydroquinoxaline-1(2H)-carboxamide] | ≥ 70% |
| CC(C)CN1CC[C@@H](NC(=O)N2CCN(c3ccc(F)cc3)c3cc(F)ccc32)C1 [Compound 4, (R)-6-fluoro-4-(4-fluorophenyl)-N-(1-isobutylpyrrolidin-3-yl)-3,4-dihydroquinoxaline-1(2H)-carboxamide] | ≥ 70% |
| O=C(N[C@@H]1CCN(C(=O)C(F)(F)F)C1)N1CCN(c2ccc(F)cc2)c2cc(F)ccc21 [Compound 5, (R)-6-fluoro-4-(4-fluorophenyl)-N-(1-(2,2,2-trifluoroacetyl)pyrrolidin-3-yl)-3,4-dihydroquinoxaline-1(2H)-carboxamide] | 10 to 30% |
| CC(=O)N1CC[C@@H](NC(=O)N2CCN(c3ccc(F)cc3)c3cc(F)ccc32)C1 [Compound 6, (R)-N-(1-acetylpyrrolidin-3-yl)-6-fluoro-4-(4-fluorophenyl)-3,4-dihydroquinoxaline-1(2H)-carboxamide] | 10 to 30% |
| CS(=O)(=O)N1CC[C@@H](NC(=O)N2CCN(c3ccc(F)cc3)c3cc(F)ccc32)C1 [Compound 7, (R)-6-fluoro-4-(4-fluorophenyl)-N-(1-(methylsulfonyl)pyrrolidin-3-yl)-3,4-dihydroquinoxaline-1(2H)-carboxamide] | 10 to 30% |
| O=C(N[C@H]1CCNC1)N1CCN(c2ccc(F)cc2)c2cc(F)ccc21 [Compound 8, (S)-6-fluoro-4-(4-fluorophenyl)-N-(pyrrolidin-3-yl)-3,4-dihydroquinoxaline-1(2H)-carboxamide] | ≥ 70% |
| CN1CC[C@H](NC(=O)N2CCN(c3ccc(F)cc3)c3cc(F)ccc32)C1 [Compound 9, (S)-6-fluoro-4-(4-fluorophenyl)-N-(1-methylpyrrolidin-3-yl)-3,4-dihydroquinoxaline-1(2H)-carboxamide] | 50 to 70% |
| CC(C)N1CC[C@H](NC(=O)N2CCN(c3ccc(F)cc3)c3cc(F)ccc32)C1 [Compound 10, (S)-6-fluoro-4-(4-fluorophenyl)-N-(1-isopropylpyrrolidin-3-yl)-3,4-dihydroquinoxaline-1(2H)-carboxamide] | ≥ 70% |
| N[C@H]1CCN(C(=O)N2CCN(c3ccc(F)cc3)c3cc(F)ccc32)C1 [Compound 11, (S)-(3-aminopyrrolidin-1-yl)(6-fluoro-4-(4-fluorophenyl)-3,4-dihydroquinoxalin-1(2H)-yl)methanone] | 30 to 50% |
| CN[C@H]1CCN(C(=O)N2CCN(c3ccc(F)cc3)c3cc(F)ccc32)C1 [Compound 12, (S)-(6-fluoro-4-(4-fluorophenyl)-3,4-dihydroquinoxalin-1(2H)-yl)(3-(methylamino)pyrrolidin-1-yl)methanone] | 30 to 50% |
| CC(C)CN[C@H]1CCN(C(=O)N2CCN(c3ccc(F)cc3)c3cc(F)ccc32)C1 [Compound 13, (S)-(6-fluoro-4-(4-fluorophenyl)-3,4-dihydroquinoxalin-1(2H)-yl)(3-(isobutylamino)pyrrolidin-1-yl)methanone] | ≥ 70% |
| CC(C)N[C@H]1CCN(C(=O)N2CCN(c3ccc(F)cc3)c3cc(F)ccc32)C1 [Compound 14, (S)-(6-fluoro-4-(4-fluorophenyl)-3,4-dihydroquinoxalin-1(2H)-yl)(3-(isopropylamino)pyrrolidin-1-yl)methanone] | 30 to 50% |
| CC(=O)N[C@H]1CCN(C(=O)N2CCN(c3ccc(F)cc3)c3cc(F)ccc32)C1 [Compound 15, (S)-N-(1-(6-fluoro-4-(4-fluorophenyl)-1,2,3,4-tetrahydroquinoxaline-1-carbonyl)pyrrolidin-3-yl)acetamide] | 10 to 30% |
| CS(=O)(=O)N[C@H]1CCN(C(=O)N2CCN(c3ccc(F)cc3)c3cc(F)ccc32)C1 [Compound 16, (S)-N-(1-(6-fluoro-4-(4-fluorophenyl)-1,2,3,4-tetrahydroquinoxaline-1-carbonyl)pyrrolidin-3-yl)methanesulfonamide] | 10 to 30% |
| O=C(NC[C@H]1CCNC1)N1CCN(c2ccc(F)cc2)c2cc(F)ccc21 [Compound 17, (S)-6-fluoro-4-(4-fluorophenyl)-N-(pyrrolidin-3-ylmethyl)-3,4-dihydroquinoxaline-1(2H)-carboxamide] | 30 to 50% |

| SMILES | inhibition at 10 µM |
| --- | --- |
| CN1CC[C@H](CNC(=O)N2CCN(c3ccc(F)cc3)c3cc(F)ccc32)C1 [Compound 18, (R)-6-fluoro-4-(4-fluorophenyl)-N-((1-methylpyrrolidin-3-yl)methyl)-3,4-dihydroquinoxaline-1(2H)-carboxamide] | 50 to 70% |
| CC(C)N1CC[C@H](CNC(=O)N2CCN(c3ccc(F)cc3)c3cc(F)ccc32)C1 [Compound 19, (R)-6-fluoro-4-(4-fluorophenyl)-N-((1-isopropylpyrrolidin-3-yl)methyl)-3,4-dihydroquinoxaline-1(2H)-carboxamide] | 50 to 70% |
| CC(C)CN1CC[C@H](CNC(=O)N2CCN(c3ccc(F)cc3)c3cc(F)ccc32)C1 [Compound 20, (R)-6-fluoro-4-(4-fluorophenyl)-N-((1-isobutylpyrrolidin-3-yl)methyl)-3,4-dihydroquinoxaline-1(2H)-carboxamide] | ≥ 70% |
| O=C(NC[C@H]1CCCN1)N1CCN(c2ccc(F)cc2)c2cc(F)ccc21 [Compound 21, (R)-6-fluoro-4-(4-fluorophenyl)-N-(pyrrolidin-2-ylmethyl)-3,4-dihydroquinoxaline-1(2H)-carboxamide] | ≥ 70% |
| CN1CCC[C@@H]1CNC(=O)N1CCN(c2ccc(F)cc2)c2cc(F)ccc21 [Compound 22, (R)-6-fluoro-4-(4-fluorophenyl)-N-((1-methylpyrrolidin-2-yl)methyl)-3,4-dihydroquinoxaline-1(2H)-carboxamide] | ≥ 70% |
| CC(C)N1CCC[C@@H]1CNC(=O)N1CCN(c2ccc(F)cc2)c2cc(F)ccc21 [Compound 23, (R)-6-fluoro-4-(4-fluorophenyl)-N-((1-isopropylpyrrolidin-2-yl)methyl)-3,4-dihydroquinoxaline-1(2H)-carboxamide] | ≥ 70% |
| CC(C)CN1CCC[C@@H]1CNC(=O)N1CCN(c2ccc(F)cc2)c2cc(F)ccc21 [Compound 24, (R)-6-fluoro-4-(4-fluorophenyl)-N-((1-isobutylpyrrolidin-2-yl)methyl)-3,4-dihydroquinoxaline-1(2H)-carboxamide] | ≥ 70% |
| CN1CC[C@@H](CNC(=O)N2CCN(c3ccc(F)cc3)c3cc(F)ccc32)C1 [Compound 25, (S)-6-fluoro-4-(4-fluorophenyl)-N-((1-methylpyrrolidin-3-yl)methyl)-3,4-dihydroquinoxaline-1(2H)-carboxamide] | 50 to 70% |
| CC(C)N1CC[C@@H](CNC(=O)N2CCN(c3ccc(F)cc3)c3cc(F)ccc32)C1 [Compound 26, (S)-6-fluoro-4-(4-fluorophenyl)-N-((1-isopropylpyrrolidin-3-yl)methyl)-3,4-dihydroquinoxaline-1(2H)-carboxamide] | 50 to 70% |
| CC(C)CN1CC[C@@H](CNC(=O)N2CCN(c3ccc(F)cc3)c3cc(F)ccc32)C1 [Compound 27, (S)-6-fluoro-4-(4-fluorophenyl)-N-((1-isobutylpyrrolidin-3-yl)methyl)-3,4-dihydroquinoxaline-1(2H)-carboxamide] | ≥ 70% |
| O=C(NCC1CC1)N1CCN(c2ccc(F)cc2)c2cc(F)ccc21 [Compound 28, N-(cyclopropylmethyl)-6-fluoro-4-(4-fluorophenyl)-3,4-dihydroquinoxaline-1(2H)-carboxamide] | 10 to 30% |
| O=C(NC1CCNCC1)N1CCN(c2ccc(F)cc2)c2cc(F)ccc21 [Compound 29, 6-fluoro-4-(4-fluorophenyl)-N-(piperidin-4-yl)-3,4-dihydroquinoxaline-1(2H)-carboxamide] | 50 to 70% |
| CN1CCC(NC(=O)N2CCN(c3ccc(F)cc3)c3cc(F)ccc32)CC1 [Compound 30, 6-fluoro-4-(4-fluorophenyl)-N-(1-methylpiperidin-4-yl)-3,4-dihydroquinoxaline-1(2H)-carboxamide] | 50 to 70% |
| CC(C)N1CCC(NC(=O)N2CCN(c3ccc(F)cc3)c3cc(F)ccc32)CC1 [Compound 31, 6-fluoro-4-(4-fluorophenyl)-N-(1-isopropylpiperidin-4-yl)-3,4-dihydroquinoxaline-1(2H)-carboxamide] | 50 to 70% |
| O=C(NCC1CCNCC1)N1CCN(c2ccc(F)cc2)c2cc(F)ccc21 [Compound 33, 6-fluoro-4-(4-fluorophenyl)-N-(piperidin-4-ylmethyl)-3,4-dihydroquinoxaline-1(2H)-carboxamide] | 50 to 70% |
| CN1CCC(CNC(=O)N2CCN(c3ccc(F)cc3)c3cc(F)ccc32)CC1 [Compound 34] | 50 to 70% |
